Key:
[1] = tested on: HepG2 Liver cancer cell line; test: MTT cell viability assay; assay type: cell-based; conditions: 72 h exposure, at least three independent experiments
[2] = tested on: A549 Human lung cancer cell line; test: MTT cell viability assay; assay type: cell-based; conditions: 72 h exposure, at least three independent experiments
[3] = tested on: MCF-7 Breast cancer cell line; test: MTT cell viability assay; assay type: cell-based; conditions: 72 h exposure, at least three independent experiments
[4] = tested on: NHDF Normal human dermal fibroblasts cell line; test: MTT cell viability assay; assay type: cell-based; conditions: 72 h exposure
[5] = DPPH radical scavenging assay; assay type: biochemical; conditions: 517 nm
[6] = tested on: CT-DNA; test: DNA thermal denaturation (biothermodynamic properties); assay type: binding, calf; conditions: for ΔS°: (ΔH°−ΔG°)/Tm; for ΔH°: Van't Hoff equation; for Tm °C of DNA-compound adduct / Tm (K) of DNA-compound adduct: compound 50 μM : CT-DNA 50 μM (1:1), 260 nm; for Tm °C of DNA-compound adduct: CT DNA alone 68 °C; for Tm (K) of DNA-compound adduct: CT DNA alone 341 K; for ΔTm °C: melting temperature change vs DNA alone; for ΔG°: −R·Tm·ln Km
Procedure: The biothermodynamic properties were obtained from absorption titration by a UV–visible spectrophotometer, accomplished with a temperature-controlled sample container in both the presence and absence of the substances. In a 5 mM Tris-HCl/50 mM NaCl buffer solution with a pH of 7.4, each test substance (50 μM) was incubated with CT-DNA (50 μM) in a 1:1 ratio. The test materials were all warmed at a rate of five degrees Celsius per minute to temperatures between 25 and 100 °C, and the changes in absorbance at 260 nm were carefully monitored. […]
ɛa is represented as the apparent absorption coefficient value for the MLCT band at a specific concentration of deoxyribonucleic acid and evaluated from Abs/[complex]. ɛ f and ɛb are the absorption coefficients for the chemical substance alone and completely interacted with deoxyribonucleic acid, respectively. ∆Amax = (Amax–A0); ∆A=(Ax–A0), where A0, Ax and Amax are denoted as the optical density of chemical substances alone, the middle form, and the completely interacted form with deoxyribonucleic acid, respectively.
2.2.3. Evaluation of biothermodynamic properties
The thermal denaturation study of CT-DNA is an efficient tool for examining the stability of test compounds bound to double-stranded DNA. […]
double to single stranded DNA. The biothermodynamic parameters also involve powerful proof for binding between test compounds and DNA. The denaturation of the biomolecules depends on T m, pH and non-physiological concentrations of salt, organic solvents and other chemical agents, etc. The DNA double helix breaks into two single strands as the temperature or pH rises, which is ascribed to the breaking of hydrophobic stacking attractions and the dissolution of H-bonds between the DNA base pairs as a result of the hydroxide ions' […]
withdrawing of the hydrogen ions (H +) from DNA base pairs. It causes a hyperchromic shift […]
inversely proportional to viscosity. Low salt concentration, conversely, can also denature DNA double-strands by eliminating the ions that stabilize the negative charges on the two strands from each other. By using UV-Vis analysis in a temperature-controlled sample holder, DNA thermal denaturation was carried out both in the absence and presence of the test compounds. In 5mM Tris-HCl /50 mM NaCl buffer (pH = 7.4) solution, each test substance (50 μM) was incubated in a 1:1 ratio with CT- DNA (50 μM). All samples were heated in the range of 25 to 100 °C at a rate of 5 °C per minute and the absorbance changes at 260 nm were constantly monitored. T m of DNA alone was evaluated as the midpoint of the sigmoid’ curves plotted absorbance vs temperature profiles. The Tm is depends on the double-stranded DNA stability. Due to substantial intercalation in DNA-complex adducts, the […]
temperature. When increasing temperature, double-stranded DNA converts into two single strands at the melting point, which leads to hyperchromic effect due to reducing the base-base interaction. As compared to DNA alone at the same high temperature, the incubated DNA solution with test compounds leads to hyporchromic effect accompanied with red shift.
Strong interactions between complexes and DNA, which restrict the separation of the double helix, cause the stabilization, and as a result, T m rises. In accordance with the T m, 50% of DNA is in its native double-stranded state, and the remaining 50% is in its denaturalized single-stranded state.
ΔG° = – R.Tm. lnKm = ΔH°– Tm ΔS° (S10)
Where K1 is represented as the binding constant value at 298 K (T r), the binding constant K 2 (Km), which indicates the temperature at which substances melt their DNA (T m K), This […]
technique offers crucial data on binding constants and associated ΔG °, ΔS° and ΔH° findings for compound-deoxyribonucleic acid systems. […]
not deliver definite confirmation for the exact mode of interactions. The experiment

Row | Compound | IC50 [1] [µM] | IC50 [2] [µM] | IC50 [3] [µM] | IC50 [4] [µM] | % Inhibition, DPPH ([5]; 40 µM) [%] | % Inhibition, DPPH ([5]; 80 µM) [%] | % Inhibition, DPPH ([5]; 120 µM) [%] | % Inhibition, DPPH ([5]; 160 µM) [%] | % Inhibition, DPPH ([5]; 200 µM) [%] | % Inhibition, DPPH ([5]; 240 µM) [%] | IC50 [5] [µM] | Binding Constant Kr (or) K1 @ 298 K [6] [M⁻¹] | ΔS° [6] [cal mol^−1 K^−1] | ΔH° [6] [kcal/mol] | Tm °C of DNA-compound adduct [6] [°C] | Tm (K) of DNA-compound adduct [6] [K] | ΔTm °C [6] [°C] | ΔG° [6] [kcal/mol]
1 | [Cu+2].[O-]c1ccccc1N=Cc1ccc(N2CCOCC2)cc1.[O-]c1ccccc1N=Cc1ccc(N2CCOCC2)cc1.c1cnc2c(c1)ccc1cccnc12 [(1b), [Cu^II(L)2(phen)]] | 30.9 ± 1.2 | 29.7 ± 1.2 | 31.7 ± 1.3 | 72.6 ± 2.9 | 18.11 | 30.88 | 36.82 | 52.42 | 58.65 | 70.12 | 160 | 20610 | −7.6237 | -8.1538 | 80.5 | 353.5 | 12.5 | -5.4588
2 | [O-]c1ccccc1N=Cc1ccc(N2CCOCC2)cc1.[O-]c1ccccc1N=Cc1ccc(N2CCOCC2)cc1.[Zn+2].c1cnc2c(c1)ccc1cccnc12 [(2b), [Zn^II(L)2(phen)]] | 33.4 ± 1.4 | 32.1 ± 1.3 | 32.5 ± 1.3 | 74.5 ± 3 | 12.82 | 24.88 | 30.89 | 40.27 | 50.12 | 60.66 | 200 | 19930 | −9.1806 | -8.5979 | 78.5 | 351.5 | 10.5 | -5.3709
3 | Oc1ccccc1N=Cc1ccc(N2CCOCC2)cc1 [(HL), 2-(4-morpholinobenzylideneamino)phenol] | – | – | – | – | 09.45 | 15.21 | 26.36 | 34.56 | 39.41 | 52.45 | – | 15169 | −13.7851 | -9.8083 | 74 | 347.0 | 6 | -5.0249
